Experiment [1] is described as follows: Discrete Trial Conditioned Avoidance Test. The class given is in vivo, male Long-Evans rats. As to conditions: Rattus norvegicus, read-out: ED50 (reduces avoidance response by 50% as compared to controls). The protocol:
In this test the compounds are administered orally to male Long-Evans rats in a universal starch vehicle. The rats have been pre-conditioned to make a 70% avoidance response. The rats are placed in individual cages and a warning tone is sounded every 20 seconds. Each rat has the opportunity to press a bar which, if done within 5 seconds, prevents an electric shock through the grid floor of the cage and is termed an avoidance response. Each rat is given 50 trials and a score of avoidance responses is kept. The drug is administered at various dose levels. […]

Experiment [2] is described as follows: "writhing syndrome" test for analgesic activity (phenyl p-quinone). The class given is in vivo, male Swiss albino mice. As to conditions: control approximately 30 per pair, active if 18 or less. The protocol: This method is based upon the reduction of the number of writhes following the intraperitoneal injection of one mg./kg. of body weight of phenyl p-quinone in male Swiss albino mice weighing 15-25 g. The syndrome is characterized by intermittent contractions of the abdomen, twisting and turning of the trunk, and extension of the hind legs beginning 3 to 5 minutes after injection of the phenyl p-quinone. The test compounds are administered orally at the indicated dose to groups of 2 mice each, 30 minutes before injection of the phenyl p-quinone.
Background: An intraperitoneal irritant provokes the stretching counted in writhing tests.

The next experiment in a line: reversible ptosis test. The class given is in vivo. The note with it: oral, rats. As for the experimental part:
A useful test for anti-psychotic activity consists of measuring ptosis in animals.
Ptosis is defined as closure of the palpebral aperture (eyelid) greater than 70%. The compounds to be tested were administered orally to groups of 10 rats each. Periodically after treatment the rats were gently placed on the cage top and examined for 90 seconds for signs of ptosis. This manipulation eliminates spontaneous ptosis. The rats were then dropped from a height of about 18 inches (exteroceptive stimulation) onto the cage top to test for reversibility of ptosis. Reversible ptosis is defined as less than 70% closure of the palpebral aperture for longer than one minute after the exteroceptive stimulation and is indicative of neuroleptic activity of the drug administered.

The nature of experiment [3]: reduction of spontaneous motor activity (Animax Activity Counter). In kind it is in vivo. The note with it: Rattus norvegicus, 5 min; oral, rats, 5 minute period; read-out: MDD50 (effective dose that causes a 50% reduction in motor activity). The protocol:
A useful test for anti-psychotic activity consists of measuring the reduction of spontaneous motor activity in animals.
Groups of 4 rats are treated orally with the test compound dissolved or suspended in starch vehicle at the maximum tolerated dose. At the estimated time of peak effect, the animals are placed singly into an Animax Activity Counter and the activity of each rat is recorded over a 5 minute period. The activity counts are compared to historical or parallel control values to determine significant increased or decreased locomotor activity.

Experiment [4] in a line: Enhancement of yohimbine lethality in mice. The class given is in vivo. As to conditions: yohimbine 34 mg/kg.
Procedure: The test compounds were administered intraperitoneally, at various dose levels, to groups of 10 mice. One hour later all mice received yohimbine at a dose (34 mg/kg) estimated to have a lethal effect in 4% of the mice. Deaths were recorded 18 to 24 hours later.
Experiment [5] in a line: Prevention of reserpine-induced hypothermia in rats. The class given is in vivo. As to conditions: for ED50: Rattus norvegicus, oral, dose column in mg/kg, read-out: ED50 (95% C.L.). As for the experimental part: Groups of 5 rats were treated orally with graded doses of the test compounds. One hour later the animals were treated with reserpine (solubilized in propylene glycol and citric acid) at a dose of 5 mg/kg intraperitoneally. Rectal temperatures were measured using a YSI Telethermometer. Temperatures were recorded just prior to treatment, one hour later just prior to reserpine administration and at hourly intervals following reserpine administration for 5 hours. […]

Experiment [6] in a line: Inhibition of tetrabenazine induced depression of exploratory behavior in mice. In kind it is in vivo. The note with it: for Number Responded/Number Treated: intraperitoneally or orally, 1 h before tetrabenazine 30 mg/kg. As for the experimental part:
Varying doses of the test compounds are administered intraperitoneally or orally to 5 mice one hour before the administration of tetrabenazine hexamate at an intraperitoneal dose of 30 mg/kg which is known to depress markedly the exploratory behavior of normal mice. Thirty minutes later the mice are tested for their exploratoy behavior. Individual mice are placed in the center of a horizontal disc. Inhibition of the depression induced by tetrabenazine is considered present if the mice perform one or more of the following actions within 10 seconds after being placed on the disc:
(1) Animals move to the edge of the disc and pear over the side.
(2) Animals move 180° in place.
(3) Animals display a head movement of 90° immediately followed by a head movement in the opposite direction of at least 45°.
Administration of the test compounds to additional groups of 5 mice is repeated, the numbers of individual animals showing an anti-depressant response (normal exploratory behavior) is recorded and the results are analyzed by the following scheme (statistically standardized; significant P = less than 0.05).
The results from several dose levels (acceptance in at least two sequential test procedures) are then used to establish the Range of Active Doses.

Experiment [7] in a line: modified Randall and Selitto analgesic test, brewers yeast inflamed paw. As to conditions: 200 mg/Kg oral; two hours after yeast; active if T/C ≥ 1.37. The class given is in vivo, rats. As for the experimental part: To determine analgesic activity, a modification of the method of Randall and Selitto [Arch. Int. […] This test measures the pain threshold of rats whose paws are made sensitive to pressure by the injection of 0.1 ml. of a 20% aqueous suspension of brewers yeast into the plantar surface of the left hind paw. Constantly increasing force (16 g/second) is applied to the swollen paw using an Analgesy Meter, Ugo Basile. The pressure is cut off at 250 g. of force when there is no response (sudden struggle or vocalization). […] Pressure-pain thresholds are always recorded two hours after administration of Brewers' yeast. Test compounds are administered at the same time as the yeast, at an oral dose of 200 mg/Kg. Ratios of treated (T)/control (C) reaction thresholds are calculated as estimates of analgesic efficacy (degree of analgesia obtainable).

Where “and” joins values, the source holds several entries; their conditions need not be identical. Equal entries are not always repeated.

Turning to `CN(C)CCCN1c2ccccc2Sc2ccc(Cl)cc21` [Chlorpromazine, reference compound], the ED50 in experiment [1] (po) worked out at 9 mg/kg.

As to `CN1CCN(C2=Nc3ccc(Cl)cc3Nc3cscc32)CC1` [6-Chloro-10-(4-methyl-1-piperazinyl)-4H-thieno[3,4-b][1,5]benzodiazepine], the “No. of Writhes Per Pair” value in experiment [2] (6.25 mg/kg oral) was 7 and 6. Moreover, in the experiment “reversible ptosis test”, the “ED50 (dose estimated to create reversible ptosis in 50% of the animals)” value was 17 mg/kg. In addition, the ED50 in experiment [3] came out at 7.7 mg/kg.

With `CN1CCN(C2=Nc3ccccc3N(C)c3cscc32)CC1` [4-Methyl-10-(4-methyl-1-piperazinyl)-4H-thieno[3,4-b][1,5]benzodiazepine], the ED50 in experiment [1] (oral, male Long-Evans rats) was 17 mg/kg; in experiment [5] (2 hours after reserpine), 1.6 mg/kg; in experiment [5] (3 hours after reserpine), 2.9 mg/kg; in experiment [5] (4 hours after reserpine), 3.5 mg/kg; in experiment [6] (Mus musculus, calculated by method of Finney, dose column in mg/kg, read-out: ED50 (95% C.L.)), 4.2 mg/kg; in experiment [3] it was 12 mg/kg. Besides, the “Number Dead/Number Treated” value is given as 3/10 in experiment [4] (10 mg/kg intraperitoneal, 18 hours); 8.10 in experiment [4] (10 mg/kg intraperitoneal, 24 hours); 6/10 in experiment [4] (20 mg/kg intraperitoneal, 18 hours); 8/10 in experiment [4] (20 mg/kg intraperitoneal, 24 hours); 4/10 in experiment [4] (40 mg/kg intraperitoneal, 18 hours); 8/10 in experiment [4] (40 mg/kg intraperitoneal, 24 hours). For the same molecule, the “Percent of Animals Showing > Two Standard Deviations in Rectal Temperature Over Control Means” value in experiment [5] (0.20 mg/kg oral, 2 hours after reserpine) is given as 0%; in experiment [5] (0.20 mg/kg oral, 3 hours after reserpine), 0%; in experiment [5] (0.20 mg/kg oral, 4 hours after reserpine) it was 0%; in experiment [5] (0.20 mg/kg oral, 5 hours after reserpine) it was 0%; in experiment [5] (0.39 mg/kg oral, 2 hours after reserpine) it was 0%; in experiment [5] (0.39 mg/kg oral, 3 hours after reserpine) it was 0%. Also, the “Percent of Animals Showing > Two Standard Deviations in Rectal Temperature Over Control Means” value in experiment [5] (0.39 mg/kg oral, 4 hours after reserpine) is 0%; in experiment [5] (0.39 mg/kg oral, 5 hours after reserpine), 0%; in experiment [5] (0.78 mg/kg oral, 2 hours after reserpine) it was 33%; in experiment [5] (0.78 mg/kg oral, 3 hours after reserpine), 7%; in experiment [5] (0.78 mg/kg oral, 4 hours after reserpine), 7%; in experiment [5] (0.78 mg/kg oral, 5 hours after reserpine) it was 27%. For the same molecule, the “Percent of Animals Showing > Two Standard Deviations in Rectal Temperature Over Control Means” value turned out to be 100% in experiment [5] (1.56 mg/kg oral, 2 hours after reserpine); 40% in experiment [5] (1.56 mg/kg oral, 3 hours after reserpine); 0% in experiment [5] (1.56 mg/kg oral, 4 hours after reserpine); 60% in experiment [5] (1.56 mg/kg oral, 5 hours after reserpine); 50% in experiment [5] (3.13 mg/kg oral, 2 hours after reserpine); 30% in experiment [5] (3.13 mg/kg oral, 3 hours after reserpine). The “Percent of Animals Showing > Two Standard Deviations in Rectal Temperature Over Control Means” value was 30% in experiment [5] (3.13 mg/kg oral, 4 hours after reserpine); 20% in experiment [5] (3.13 mg/kg oral, 5 hours after reserpine); 80% in experiment [5] (6.25 mg/kg oral, 2 hours after reserpine); 80% in experiment [5] (6.25 mg/kg oral, 3 hours after reserpine); 80% in experiment [5] (6.25 mg/kg oral, 4 hours after reserpine); 0% in experiment [5] (6.25 mg/kg oral, 5 hours after reserpine). Besides, the “Percent of Animals Showing > Two Standard Deviations in Rectal Temperature Over Control Means” value in experiment [5] (12.5 mg/kg oral, 2 hours after reserpine) worked out at 100%; in experiment [5] (12.5 mg/kg oral, 3 hours after reserpine), 100%; in experiment [5] (12.5 mg/kg oral, 4 hours after reserpine), 100%; in experiment [5] (12.5 mg/kg oral, 5 hours after reserpine), 20%. Further, in experiment [2] (50 mg/kg oral), the “No. of Writhes Per Pair” value turned out to be 0. Further, the “Number Responded/Number Treated” value in experiment [6] (0.78 mg/kg) is listed as 1/10; in experiment [6] (1.56 mg/kg), 3/10; in experiment [6] (3.13 mg/kg), 6/10; in experiment [6] (6.25 mg/kg), 6/10; in experiment [6] (12.5 mg/kg), 7/10; in experiment [6] (25.0 mg/kg), 8/10.

Regarding `CN1CCN(C2=Nc3cc(Cl)ccc3N(C)c3cscc32)CC1.[O-][Cl+3]([O-])([O-])O.[O-][Cl+3]([O-])([O-])O` [7-Chloro-4-methyl-10-(4-methyl-1-piperazinyl)-4H-thieno[3,4-b][1,5]benzodiazepine diperchlorate], in experiment [7], the “Ratio T/C (treated/control reaction thresholds)” value was found to be 1.55. Besides, the ED50 in experiment [3] stood at 25 mg/kg.

As for `CN1CCN(C2=Nc3cc(Cl)ccc3Nc3cscc32)CC1.[O-][Cl+3]([O-])([O-])O.[O-][Cl+3]([O-])([O-])O` [7-Chloro-10-(4-methyl-1-piperazinyl)-4H-thieno[3,4-b][1,5]benzodiazepine diperchlorate], in experiment [2] (1.6 mg/kg oral), the “No. of Writhes Per Pair” value was 1 and 2. Moreover, the “ED50 (dose estimated to create reversible ptosis in 50% of the animals)” value in the experiment “reversible ptosis test” was 10 mg/kg. In addition, the ED50 in experiment [3] turned out to be 20 mg/kg.

These data come from patent US4087421A, “Substituted benzodiazepines and method of use” (American Cyanamid Company, priority 1977, dated 1978).
